The values below come from patent US9765056B2, “Indole and pyrrole compounds, a process for their preparation and pharmaceutical compositions containing them” (LES LABORATOIRES SERVIER, priority 2013, dated 2017).

Structures are written as SMILES. Counter-ions that a name gives are not always drawn.

Assay [1] concerns RS4;11 leukaemia tumour line. As to the kind of experiment: In vitro cytotoxicity, Microculture Tetrazolium Assay (MTT). The class given is cell-based. The conditions noted are these: Homo sapiens; RS4;11 cells, 48 hours exposure. On the procedure:
The cytotoxicity studies were carried out on the RS4;11 leukaemia tumour line.
The cells are distributed onto microplates and exposed to the test compounds for 48 hours. The cell viability is then quantified by a colorimetric assay, the Microculture Tetrazolium Assay (Cancer Res., 1987, 47, 939-942).

Another assay concerns the target Bcl-2 protein (histag-Bcl-2, UniProtKB P10415) (Homo sapiens (Human), UniProt P10415). Kind of assay: Inhibition of Bcl-2 by the fluorescence polarisation technique. The conditions noted are these: fluorescence polarisation test; method A, or method B where underlined (underlining not visible); read-out: IC50 (nM) Bcl-2 FP. The assay is classed as binding. The source says: Inhibition of Bcl-2 by the fluorescence polarisation technique

By IC50 is commonly meant the concentration that inhibits the measured activity by half.

Sequence of Bcl-2 protein (P10415 whole entry): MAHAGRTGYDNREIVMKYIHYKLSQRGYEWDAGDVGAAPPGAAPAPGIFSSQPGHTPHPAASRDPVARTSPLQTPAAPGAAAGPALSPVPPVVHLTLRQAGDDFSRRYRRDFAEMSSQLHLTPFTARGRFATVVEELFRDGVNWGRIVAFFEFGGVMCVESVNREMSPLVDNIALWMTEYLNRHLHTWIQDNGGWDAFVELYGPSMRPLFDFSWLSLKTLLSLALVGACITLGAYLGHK

For the compound `Cc1cc(C(=O)N(c2ccc(O)cc2)c2ccc3c(ccn3C)c2)cn1-c1cc2c(cc1C(=O)N1Cc3ccccc3C[C@H]1CN1CCOCC1)CCC2` [Example 117, N-(4-Hydroxyphenyl)-5-methyl-N-(1-methyl-1H-indol-5-yl)-1-(6-{[(3S)-3-(morpholin-4-ylmethyl)-3,4-dihydroisoquinolin-2(1H)-yl]carbonyl}-2,3-dihydro-1H-inden-5-yl)-1H-pyrrole-3-carboxamide hydrochloride], the IC50 in assay [1] is 193 nM; at Bcl-2 protein it was 7.6 nM.

Consider `CN1CCN(C[C@@H]2Cc3ccccc3CN2C(=O)c2cc3c(cc2-n2cc(C(=O)N(c4ccc(O)cc4)c4ccc5[nH]ccc5c4)c4cc(Cl)ccc42)OCO3)CC1` [Example 88, 5-Chloro-N-(4-hydroxyphenyl)-N-(1H-indol-5-yl)-1-(6-{[(3S)-3-[(4-methylpiperazin-1-yl)methyl]-3,4-dihydroisoquinolin-2(1H)-yl]carbonyl}-1,3-benzodioxol-5-yl)-1H-indole-3-carboxamide], for which the concentration for half-maximal inhibition (IC50) is 541 nM in assay [1] and 19.6 nM at Bcl-2 protein.

For the compound `CN1CCN(C[C@@H]2Cc3ccccc3CN2C(=O)c2ccc(Cl)cc2-n2cc(C(=O)N(c3ccc(O)cc3)c3ccc4c(ccn4C)c3)c3ccccc32)CC1` [Example 93, 1-(5-Chloro-2-{[(3S)-3-[(4-methylpiperazin-1-yl)methyl]-3,4-dihydroisoquinolin-2(1H)-yl]carbonyl}phenyl)-N-(4-hydroxyphenyl)-N-(1-methyl-1H-indol-5-yl)-1H-indole-3-carboxamide], the IC50 in assay [1] came out at 75.4 nM; at Bcl-2 protein, 3.3 nM.

For the compound `CN1CCN(C[C@@H]2Cc3ccccc3CN2C(=O)c2cc3c(cc2-n2cc(C(=O)N(c4ccccc4)c4ccccc4)c4ccccc42)OCO3)CC1` [Example 177, 1-{6-[(3S)-3-[(4-Methylpiperazin-1-yl)methyl]-1,2,3,4-tetrahydroisoquinoline-2-carbonyl]-2H-1,3-benzodioxol-5-yl}-N,N-diphenyl-1H-indole-3-carboxamide dihydrochloride], the IC50 in assay [1] was 568 nM; at Bcl-2 protein it was 18.8 nM.

Regarding `CN1CCN(C[C@@H]2Cc3ccccc3CN2C(=O)c2cc(NC(=O)CSc3ccccc3)ccc2-n2cc(C(=O)N(c3ccccc3)c3ccc(O)cc3)c3ccccc32)CC1` [Example 163, N-(4-Hydroxyphenyl)-1-{2-[(3S)-3-[(4-methylpiperazin-1-yl)methyl]-1,2,3,4-tetrahydroisoquinoline-2-carbonyl]-4-[2-(phenylsulphanyl)acetamido]phenyl}-N-phenyl-1H-indole-3-carboxamide], the 50% inhibitory concentration (IC50) is 292 nM in assay [1] and 22.8 nM on Bcl-2 protein.

`CN1CCN(C[C@@H]2Cc3ccccc3CN2C(=O)c2cc3c(cc2-n2cc(C(=O)N(c4ccccc4)c4ccc(O)cc4)c4ccccc42)OCCO3)CC1` [Example 170, N-(4-Hydroxyphenyl)-1-{7-[(3S)-3-[(4-methylpiperazin-1-yl)methyl]-1,2,3,4-tetrahydroisoquinoline-2-carbonyl]-2,3-dihydro-1,4-benzodioxin-6-yl}-N-phenyl-1H-indole-3-carboxamide]: the IC50 turned out to be 177 nM in assay [1] and 16.8 nM at Bcl-2 protein.

In the case of `COc1ccc(C(=O)N2Cc3ccccc3C[C@H]2CN)c(-n2cc(C(=O)N(c3ccccc3)c3ccccc3)c3ccccc32)c1` [Example 147, 1-{2-[(3S)-3-(Aminomethyl)-1,2,3,4-tetrahydroisoquinoline-2-carbonyl]-5-methoxyphenyl}-N,N-diphenyl-1H-indole-3-carboxamide], the IC50 in assay [1] worked out at 966 nM; on Bcl-2 protein it was 22.5 nM.

As for `Cc1cc(C(=O)N(c2ccccc2)c2ccccc2)cn1-c1ccccc1C(=O)N1Cc2ccccc2C[C@H]1CN` [Example 5, 1-(2-{[(3S)-3-(Aminomethyl)-3,4-dihydroisoquinolin-2(1H)-yl]-carbonyl}phenyl)-5-methyl-N,N-diphenyl-1H-pyrrole-3-carboxamide trifluoroacetate], the half-inhibitory concentration (IC50) in assay [1] was found to be 2590 nM; at Bcl-2 protein, 213 nM.

In the case of `CCn1ccc2cc(N(C(=O)c3cn(-c4cc5c(cc4C(=O)N4Cc6ccccc6C[C@H]4CN4CCN(C)CC4)OCO5)c4ccccc34)c3ccc(O)cc3)ccc21` [Example 99, N-(1-Ethyl-1H-indol-5-yl)-N-(4-hydroxyphenyl)-1-(6-{[(3S)-3-[(4-methylpiperazin-1-yl)methyl]-3,4-dihydroisoquinolin-2(1H)-yl]carbonyl}-1,3-benzodioxol-5-yl)-1H-indole-3-carboxamide], the figures for the IC50 (in assay [1]; at Bcl-2 protein) were 41.7 nM and 4.8 nM, respectively.

Turning to `CN1CCN(C[C@@H]2Cc3ccccc3CN2C(=O)c2cc3c(cc2-n2cc(C(=O)N(c4ccc(O)cc4)c4ccc5c(ccn5C)c4)c4ccccc42)OCO3)CC1` [Example 45, N-(4-Hydroxyphenyl)-N-(1-methyl-1H-indol-5-yl)-1-(6-{[(3S)-3-[(4-methylpiperazin-1-yl)methyl]-3,4-dihydroisoquinolin-2(1H)-yl]carbonyl}-1,3-benzodioxol-5-yl)-1H-indole-3-carboxamide], the half-inhibitory concentration (IC50) in assay [1] stood at 36.5 nM; at Bcl-2 protein, 6.7 nM.

As for `Cc1cc(C(=O)N(c2ccc(O)cc2)c2ccc3c(c2)CCN3)cn1-c1cc2c(cc1C(=O)N1Cc3ccccc3C[C@H]1CN1CCN(C)CC1)OCO2` [Example 103, N-(2,3-Dihydro-1H-indol-5-yl)-N-(4-hydroxyphenyl)-5-methyl-1-(6-{[(3S)-3-[(4-methylpiperazin-1-yl)methyl]-3,4-dihydroisoquinolin-2(1H)-yl]carbonyl}-1,3-benzodioxol-5-yl)-1H-pyrrole-3-carboxamide hydrochloride], the IC50 was 523 nM in assay [1] and 17.4 nM at Bcl-2 protein.

As for `O=C(c1cn(-c2ccccc2C(=O)N2Cc3ccccc3C[C@H]2CO)c2ccccc12)N(c1ccccc1)c1ccc(O)cc1` [Example 172, 1-{2-[(3S)-3-(Hydroxymethyl)-1,2,3,4-tetrahydroisoquinoline-2-carbonyl]phenyl}-N-(4-hydroxyphenyl)-N-phenyl-1H-indole-3-carboxamide], the half-inhibitory concentration (IC50) in assay [1] is 1200 nM; at Bcl-2 protein, 4.2 nM.

For the compound `Cc1cc(C(=O)N(c2ccccc2)c2ccc(O)cc2)cn1-c1cc(Cl)ccc1C(=O)N1Cc2ccccc2C[C@H]1CN1CCN(C)CC1` [Example 26, 1-(5-Chloro-2-{[(3S)-3-[(4-methylpiperazin-1-yl)methyl]-3,4-dihydroisoquinolin-2(1H)-yl]carbonyl}phenyl)-N-(4-hydroxyphenyl)-5-methyl-N-phenyl-1H-pyrrole-3-carboxamide], the half-inhibitory concentration (IC50) in assay [1] was determined as 171 nM; on Bcl-2 protein, 7.5 nM.

As for `Cc1cc(C(=O)N(c2ccccc2)c2ccc(O)cc2)cn1-c1cc(F)c(F)cc1C(=O)N1Cc2ccccc2C[C@H]1CN1CCN(C)CC1` [Example 20, 1-(4,5-Difluoro-2-{[(3S)-3-[(4-methylpiperazin-1-yl)methyl]-3,4-dihydroisoquinolin-2(1H)-yl]carbonyl}phenyl)-N-(4-hydroxyphenyl)-5-methyl-N-phenyl-1H-pyrrole-3-carboxamide], the concentration for half-maximal inhibition (IC50) came to 900 nM in assay [1] and 74.3 nM on Bcl-2 protein.

With `CNc1ccc(-n2nc(C(=O)N(c3ccccc3)c3ccccc3)c3ccccc32)c(C(=O)N2Cc3ccccc3C[C@H]2CN)c1` [Example 140, 1-{2-[(3S)-3-(Aminomethyl)-1,2,3,4-tetrahydroisoquinoline-2-carbonyl]-4-(methylamino)phenyl}-N,N-diphenyl-1H-indazole-3-carboxamide], the IC50 in assay [1] is 1840 nM; on Bcl-2 protein it was 25 nM.
